In the NIST ThermoML archive (doi:10.1021/acs.jced.5b00597):
Values joined by “and” are separate entries in the source; they are usually repeats but may differ in a detail not shown here. Equal entries are not always repeated.

Test: molar heat capacity at constant pressure
Conditions: Liquid, Flow calorimetry

FC(F)CC(F)(F)F [1,1,1,3,3-pentafluoropropane]
Conditions | molar heat capacity at constant pressure
277.89 K, 518.3 kPa | 170.11 J/K/mol
277.9 K, 519 kPa | 171.31 J/K/mol
282.87 K, 509.6 kPa | 171.72 J/K/mol
282.87 K, 511 kPa | 172.65 J/K/mol
287.9 K, 513.9 kPa | 173.46 J/K/mol
287.92 K, 512.5 kPa | 173.46 J/K/mol and 171.85 J/K/mol
292.91 K, 518.1 kPa | 179.09 J/K/mol
297.89 K, 514.6 kPa | 177.61 J/K/mol and 177.21 J/K/mol
302.89 K, 517.2 kPa | 178.42 J/K/mol
302.9 K, 518 kPa | 179.09 J/K/mol
307.87 K, 519.5 kPa | 181.23 J/K/mol
307.88 K, 504.1 kPa | 181.1 J/K/mol
307.88 K, 514.4 kPa | 182.17 J/K/mol [middle of 4 runs]
307.88 K, 808.1 kPa | 181.5 J/K/mol
307.89 K, 517.9 kPa | 182.71 J/K/mol
307.89 K, 518.2 kPa | 181.77 J/K/mol
307.89 K, 522.2 kPa | 181.63 J/K/mol
307.92 K, 415.8 kPa | 180.7 J/K/mol
307.93 K, 520.4 kPa | 182.71 J/K/mol
312.89 K, 514.5 kPa | 181.77 J/K/mol
313.89 K, 520.4 kPa | 180.96 J/K/mol
317.9 K, 522.2 kPa | 183.24 J/K/mol
317.9 K, 522.6 kPa | 181.9 J/K/mol
322.94 K, 518.4 kPa | 185.66 J/K/mol
322.95 K, 517.7 kPa | 184.85 J/K/mol and 184.58 J/K/mol
327.96 K, 806.4 kPa | 187.13 J/K/mol
327.97 K, 808.9 kPa | 185.92 J/K/mol
332.97 K, 815 kPa | 189.41 J/K/mol
332.97 K, 816.5 kPa | 187.8 J/K/mol
337.98 K, 810.3 kPa | 190.62 J/K/mol
342.96 K, 817.2 kPa | 192.22 J/K/mol
342.99 K, 813.6 kPa | 192.49 J/K/mol
